Laboratory results from patent publication US20250313849A1, “OPTOGENETIC INDUCTION OF MEMBRANELESS ORGANELLES” (UNIVERSITY OF PITTSBURGH-OF THE COMMONWEALTH SYSTEM OF …, priority 2017, published 2025).
Entries after “also recorded” stand apart in the source; their conditions may differ.

Legend:
Format in all cases: cell-based
HEK293 cells [1] = assay: Longitudinal live imaging of light induced stress granule dynamics; details: for dynamics / liquid-like behaviour of light induced stress granules: blue light on/off or chronic
Method: FIG. 15. […] NcVVDY50W-G3BP1 was expressed in HEK293 cells. […] NcVVDY50W-G3BP1 expressing HEK293 cells were longitudinally imaged every 30 seconds and exposed to blue light in between each image for 30 minutes. The light was then removed and cells were imaged every 30 seconds without light in between each image to study the rate of formation and dissociation of the light induced stress granules.
FIGS. 17A-17B. […] FIG. 17A) NcVVDY50W-G3BP1 was expressed in HEK293 cells. Stress granule formation can be temporally controlled with light stimulation at different voltages. FIGS. 17B) NcVVDY50W-G3BP1 expressing HEK293 cells were longitudinally imaged every 30 seconds and exposed to different voltages (1.0V, or 5.0V, or 10.0V) of blue light in between each image for 30 minutes, over a time-course of 6 hours. The light was then removed and cells were imaged every 30 seconds without light in between each image to study the rate of formation of the light induced stress granules.
FIGS. 18A-18E. […] NcVVDY50W-G3BP1 was expressed in HEK293 cells. […] Light paradigms were developed to chronically form stress granules with light for up to 18 hours. The light induced stress granules are positive for both key markers such as PABPC1 and sequester mRNA throughout the time course, indicating they are functional. […] No previous study has been able to induce stress granule formation for more than 2-3 hours as the cells die from the treatment to induce stress granules. Thus, these are the first studies to create chronic stress granules for over 2-3 hours.
(§1) FIGS. 24A-24E. Replacing the G3BP1 NTF2 domain, which is required for G3BP1 self-oligomerization (optoSG), with oligomerizing photoreceptors, is sufficient to initiate the formation of optogenetic stress granules. FIG. 24A) Schematics of an additional approach to seed optoStress Granules (optoSGs) employing truncated G3BP1 protein and replacing the NTF2 oligomerizing domain with a photoreceptor with the capacity to oligomerize (in this instance Cry2-PHR, but also works with chronic stimulation of dimerizing photoreceptor). FIG. 24B) HEK cells expressing Cry2 PHR-[…]NTF-G3BP1 were exposed to blue light LED stimulation for 30 minutes to induce the formation of optoSGs.
FIGS. 25A-25C. OptoStress Granules (optoSGs) (Cry2-delta NTF-G3BP1) display liquid-like properties of membraneless organelles and colocalize with translation initiation factors and mRNA.

HEK293 cells [2] = assay: Blue light induced stress granules: staining for stress granule markers and mRNA; details: blue light stimulation
Text: FIGS. 2A-2B. Blue light induced stress granules using a NcVVDY50W-G3BP1 protein arrangement. […] A DNA arrangement that generates the NcVVDY50W-G3BP1 was developed and expressed in HEK293 cells. Under normal conditions, the NcVVDY50W-G3BP1 remains diffuse in the cytoplasm. When endogenous stress granule formation is induced with heat shock, the NcVVDY50W-G3BP1 forms stress granules that stain positive for key markers including Ataxin-2 and TIAR.
FIG. 5. […] Under normal conditions, G3BP1-NcVVDY50W remains diffuse in the cytoplasm. When endogenous stress granule formation is induced with NaAsO2 (0.5 mM, 30 min treatment), the G3BP1-NcVVDY50W forms stress granules that stain positive for key markers TDP-43 and eIF4G. […] As an example of this technology, DNA arrangements were developed that generated G3BP1-NcVVDY50W, and expressed in HEK293 cells. Under normal conditions, the G3BP1-NcVVDY50W remains diffuse in the cytoplasm. When endogenous stress granule formation is induced with sodium arsenite, the G3BP1-NcVVDY50W forms stress granules that probe positive for key markers, including TDP-43 and eIF4G. […] Inserts are 3D images of stress granules indicated by arrows.
While stress granule dynamics are shown to be altered in these diseases, the true contributions of stress granules to disease pathobiology is unknown since the only current method to form these organelles is to introduce an extracellular stressor (e.g. heat stress at 43° C., exposure to sodium arsenite) which is toxic to cells and ultimately kills the cells being studied. The longest studies of stress granules to date are only on the order of a few hours and so, the importance of these organelles in the initiation of neurodegeneration or cancer cannot be assessed. Therefore, a method to control stress granule formation was developed using light, without the need for any extracellular stressors. To achieve this, the DNA encoding specific photoreceptor protein domains that self-bind with blue light exposure were linked to the DNA of a key protein required for the formation of stress granules, G3BP1 or TIA1. These arrangements were then expressed in HEK293 cells and were tested for their ability to form functional stress granules with various blue light treatment paradigms. It was shown that the LOV photoreceptor domain, from the Vivid protein of N. crassa, which is known to dimerize with blue light exposure, when fused to G3BP1 and exposed to 15-1080 min of 465 nm light at 0.1-1.0 mW/cm2 initiates the formation of a core stress granule structure consisting of the photoreceptors fused to G3BP1 that recruits additional G3BP1 and accessory proteins that comprise stress granules and allow for their maturation. This likely involved the liquid-liquid phase separation (LLPS) and dimerization and oligomerization of G3BP1 (concept represented in FIG. 1).

protein synthesis = assay: De novo protein synthesis, HPG incorporation with Click-iT detection; details: blue light stimulation; Click-iT detection
Method: FIGS. 14A-14B. […] The major function of endogenous stress granules is to bind mRNAs and halt protein synthesis until the cellular stress is removed. To test this, cells expressing G3BP1-NcVVDY50W were either exposed to blue light stimulation or not for 30 minutes and protein translation was assessed. Prior to the translation assay, cells were treated with cyclohexamide for one hour to inhibit protein synthesis and then the cyclohexamide was removed and cells were provided L-Homopropargylglycine (HPG) for one hour. HPG acts as a methionine amino acid analog and is incorporated into newly synthesized proteins. Click-iT™ chemistry was then performed to detect HPG and cells were imaged. Green signal indicates newly synthesized proteins during the time at which HPG is present in the media.
as §1

Molecule	dynamics / liquid-like behaviour of light induced stress granules (HEK293 cells [1]; HEK293 cells)	duration of chronically formed stress granules with light (HEK293 cells [1]; HEK293 cells, chronic light, no cell stressors)	colocalization of blue light induced stress granules with stress granule markers (HEK293 cells [2])	mRNA sequestration by blue light induced stress granules (HEK293 cells [2])	protein synthesis (HPG signal) with light-induced stress granules (protein synthesis)	time to optoSG formation (HEK293 cells [1]; HEKs, blue light LED stimulation)
NcVVDY50W-G3BP1: NcVivid Y50W with G3BP1 Full Length Protein, SEQ ID NO: 9	repeatedly formed; also recorded: decrease in number and increase in size	up to 18 hours	stained positive for Ataxin-2 and TIAR; also recorded: colocalize with the key stress granule marker eIF3H	sequester cytoplasmic mRNA		
Cry2 PHR-[…]NTF-G3BP1: Cry2PHR with G3BP1 NTF2 Domain Deletion Mutation, SEQ ID NO: 94 (protein) MKMDKKTIVWFRRDLRIEDNPALAAAAHEGSVFPVFIWCPEEEGQFYPGRASRWWMKQSLAHLSQSLKALGSDLTLIKTHNTISAILDCIRVTGATKVVFNHLYDPVSLVRDHTVKEKLVERGISVQSYNGDLLYEPWEIYCEKGKPFTSFNSYWKKCLDMSIESVMLPPPWRLMPITAAAEAIWACSIEELGLENEAEKPSNALLTRAWSPGWSNADKLLNEFIEKQLIDYAKNSKKVVGNSTSLLSPYLHFGEISVRHVFQCARMKQIIWARDKNSEGEESADLFLRGIGLREYSRYICFNFPFTHEQSLLSHLRFFPWDADVDKFKAWRQGRTGYPLVDAGMRELWATGWMHNRIRVIVSSFAVKFLLLPWKWGMKYFWDTLLDADLECDILGWQYISGSIPDGHELDRLDNPALQGAKYDPEGEYIRQWLPELARLPTEWIHHPWDAPLTVLKASGVELGTNYAKPIVDIDTARELLAKAISRTREAQIMIGAAMGFVTEPQEESEEEVEEPEERQQTPEVVPDDSGTFYDQAVVSNDMEEHLEEPVAEPEPDPEPEPEQEPVSEIQEEKPEPVLEETAPEDAQKSSSPAPADIAQTVQEDLRTFSWASVTSKNLPPSGAVPVTGIPPHVVKVPASQPRPESKPESQIPPQRPQRDQRVREQRINIPPQRGPRPIREAGEQGDIEPRRMVRHPDSHQLFIGNLPHEVDKSELKDFFQSYGNVVELRINSGGKLPNFGFVVFDDSEPVQKVLSNRPIMFRGEVRLNVEEKKTRAAREGDRRDNRLRGPGGPRGGLGGGMRGPPRGGMVQKPGFGVGRGLAPRQKLIPMARRAWLEHGHSCFLCEIVIRSQFHTTYEPEA	exhibit the liquid-like droplet properties of endogenously formed stress granules		colocalize with endogenous stress granule markers including PABPC1 and the 40S ribosomal component RPS3; also recorded: colocalize with mature stress granule markers Ataxin2 and eIF4G translational factors		inhibit cellular protein synthesis to a similar degree as sodium arsenite induced stress granules	15 min
